Measurements: the Kinase Knowledgebase extract (Sharma et al. 2016)
pIC50: −log10 of the molar value.

Each compound was assayed against PIK3CA (UniProt P42336) (assay: In Vitro Inhibition of PIK3CA Kinase Activity).
Sequence of PIK3CA (P42336 whole entry, looked up): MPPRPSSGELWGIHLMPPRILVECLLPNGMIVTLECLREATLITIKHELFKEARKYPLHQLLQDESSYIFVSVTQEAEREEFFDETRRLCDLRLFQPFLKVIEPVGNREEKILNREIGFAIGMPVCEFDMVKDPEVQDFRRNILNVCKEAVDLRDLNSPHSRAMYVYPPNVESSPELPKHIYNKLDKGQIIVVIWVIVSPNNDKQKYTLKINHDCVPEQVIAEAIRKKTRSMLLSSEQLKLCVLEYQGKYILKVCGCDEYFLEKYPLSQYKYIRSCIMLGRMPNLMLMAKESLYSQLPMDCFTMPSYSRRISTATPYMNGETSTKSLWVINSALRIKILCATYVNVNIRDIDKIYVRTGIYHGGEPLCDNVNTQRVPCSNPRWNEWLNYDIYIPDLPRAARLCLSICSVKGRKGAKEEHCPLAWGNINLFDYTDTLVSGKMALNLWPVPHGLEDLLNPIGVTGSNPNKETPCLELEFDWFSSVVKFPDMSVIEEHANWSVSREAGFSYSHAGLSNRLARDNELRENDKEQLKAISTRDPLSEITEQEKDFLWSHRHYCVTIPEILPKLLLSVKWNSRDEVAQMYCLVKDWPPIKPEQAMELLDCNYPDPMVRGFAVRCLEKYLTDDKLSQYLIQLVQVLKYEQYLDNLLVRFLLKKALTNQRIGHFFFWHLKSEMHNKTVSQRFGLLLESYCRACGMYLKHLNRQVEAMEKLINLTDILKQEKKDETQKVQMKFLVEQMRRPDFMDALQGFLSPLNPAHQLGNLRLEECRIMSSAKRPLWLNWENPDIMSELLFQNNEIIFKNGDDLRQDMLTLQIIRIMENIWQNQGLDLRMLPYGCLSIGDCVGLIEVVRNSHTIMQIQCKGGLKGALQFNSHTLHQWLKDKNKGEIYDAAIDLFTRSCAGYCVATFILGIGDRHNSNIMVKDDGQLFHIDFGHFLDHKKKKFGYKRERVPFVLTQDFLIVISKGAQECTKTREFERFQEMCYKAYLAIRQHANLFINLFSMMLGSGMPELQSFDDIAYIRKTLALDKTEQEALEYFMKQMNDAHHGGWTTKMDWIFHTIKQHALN

Question: `O=c1cc(N2CCOCC2)nc2c3ccccc3ccn12` was tested. Which pIC50 did it give?
Answer: Its pIC50 is 3.12.

Question: With `O=c1cc(N2CCOCC2)oc2cc(OCc3ccc(F)cc3)ccc12` as the compound, how does the pIC50 read?
Answer: The pIC50 was 4.02.

Question: How did the pIC50 turn out when `O=c1cc(N2CCOCC2)oc2c1ccc1ccccc12` was run?
Answer: Its pIC50 is 4.70.

Question: `O=c1cc(N2CCOCC2)oc2cc3ccccc3cc12` was tested. Which pIC50 did it give?
Answer: Its pIC50 is 4.80.

Question: `O=C1c2ccccc2C(=O)N1CCCOc1ccc2c(=O)cc(N3CCOCC3)oc2c1` was tested. Which pIC50 did it give?
Answer: The pIC50 was 5.22.

Question: How did the pIC50 turn out when `O=c1cc(-c2ccccc2)oc(N2CCOCC2)c1` was run?
Answer: Its pIC50 is 4.52.

Question: With `O=c1cc(N2CCOCC2)oc2c3c(ccc12)CCCC3` as the compound, how does the pIC50 read?
Answer: The pIC50 was 4.74.

Question: `O=c1cc(-c2ccc(F)cc2)oc(N2CCOCC2)c1` was tested. Which pIC50 did it give?
Answer: Its pIC50 is 4.89.

Question: How did the pIC50 turn out when `O=c1cc(N2CCSCC2)oc2c1ccc1ccccc12` was run?
Answer: The pIC50 was 5.22.

Question: `O=c1cc(-c2ccc(Cl)cc2)oc(N2CCOCC2)c1` was tested. Which pIC50 did it give?
Answer: Its pIC50 is 5.00.

Question: `O=c1cc(N2CCOCC2)oc2ccc3ccccc3c12` was tested. Which pIC50 did it give?
Answer: Its pIC50 is 4.96.

Question: `CC(C)(C)c1ccc(-c2cc(=O)cc(N3CCOCC3)o2)cc1` was tested. Which pIC50 did it give?
Answer: Its pIC50 is 4.43.

Question: With `CC1CN(c2cc(=O)c3ccc4ccccc4c3o2)CCO1` (stereo not given) as the compound, how does the pIC50 read?
Answer: The pIC50 was 5.60.

Question: `O=c1cc(N2CCOCC2)oc2cc(OCc3ccc(Cl)cc3)ccc12` was tested. Which pIC50 did it give?
Answer: Its pIC50 is under 4.00.

Question: `COc1ccc(-c2cc(=O)cc(N3CCOCC3)o2)cc1` was tested. Which pIC50 did it give?
Answer: Its pIC50 is 4.82.
